From patent US7229635B2, “Pharmacotherapeutic process and composition for central nervous system disorders” (Indiana University Research and Technology Corporation, priority 2000, dated 2007)

Tests used:
Gαq/11 G-proteins = details: sustained TRH exposure to its receptor; cited from earlier work
rat hippocampal slices = assay: 50 mM [K+]-stimulated glutamate release from superfused hippocampal slices; assay type: cell-based; details: for glutamate at 10 min. post stimulation: control 4.37±1.29, p<0.05; for peak 50 mM [K+]-stimulated glutamate release: control 48.05±8.59, p<0.001
Experimental: Enhanced excitatory amino acid release is suspected in pathways associated with seizures and excitotoxicity. In this regard, superfused hippocampal slices were used to investigate whether TRH could inhibit glutamate release in vitro. Rat hippocampi were removed and sliced transversely (500/μm) under low magnification. Slices were weighed, washed in cold saline, transferred to individual tissue chambers floated in a 37°/C. water bath, and were equilibrated in oxygenated (95% O2/5% CO2) Kreb's buffer (KRB) at 37° C. for 120 min. (0.5 ml/min). Slice chambers were then superfused 10 min. with KRB (control), or KRB containing 10 μM, 1 μM, or 0.1 μM TRH, respectively, prior to 5 min. stimulation with modified KRB (50 mM [K^+]±TRH). Fractions (1 min.) were collected during the 5 min. stimulation and for an additional 10 min. (0.5 ml/min.) thereafter, and analyzed for glutamate by HPLC.

[1] = system: kindled seizures (amygdala); details: delivery of about 10^−6 to about 10^−12 M TRH to the brain; Example 3 and Chepournova et al.; cited from earlier work

For `NC(=O)[C@@H]1CCCN1C(=O)[C@H](Cc1cnc[nH]1)NC(=O)[C@@H]1CCC(=O)N1` [TRH, Thyrotropin-releasing hormone], the “reduction of Gαq/11 G-proteins” value (Gαq/11 G-proteins) is given as 20-70%, the “glutamate at 10 min. post stimulation” value (rat hippocampal slices; 0.1 μM TRH) is given as 1.54±0.43 μMg/fraction and the “peak 50 mM [K+]-stimulated glutamate release” value (shortened to “peak 50 mM”) (rat hippocampal slices; 0.1 μM TRH) is given as 1.38±0.28 μMg/fraction. For the same compound, the “glutamate at 10 min. post stimulation” value (rat hippocampal slices; 1 μM TRH) was 1.11±0.26 μMg/fraction, the “peak 50 mM” value (rat hippocampal slices; 1 μM TRH) was 1.54±0.33 μMg/fraction and the “glutamate at 10 min. post stimulation” value (rat hippocampal slices; 10 μM TRH) was 1.35±0.48 μMg/fraction. The “peak 50 mM” value (rat hippocampal slices; 10 μM TRH) was 2.35±0.50 μMg/fraction, the “effect on glutamate release by 50 mM [K+] stimulation given 15 min. later” value (rat hippocampal slices; perfusion (5 min.) with KRB+10 μM TRH, FIG. 6) was “significantly (p<0.05) blocked glutamate release” and the “effect in kindling studies” value [1] was “anticonvulsant”.
